The text below walks through data of publication PMC10017046 (Science Advances, 2023).

Series [1] relates to MTLR. As to conditions: cited from earlier work.
Series [2] addresses MTLR L341A (Homo sapiens, UniProt O43193, L341A). In words: IP1 accumulation. It is filed as cell-based. As to conditions: MTLR-bearing alanine mutation of L341^7.39.
Series [3] relates to MTLR, substitution of E119^3.33 with aspartic acid. The note with it: E119^3.33 substituted with aspartic acid; ref [16]; cited from earlier work.
Series [4] relates to gastroparesis. As to conditions: ref [14], [15]; cited from earlier work.
For series [5], the system named is MTLR. As to conditions: cited from earlier work. The source holds these as a separate data set.
The test system of series [6] is GI motility. The note with it: cited from earlier work; for GI motility activity: [51].
Series [7] has as its system MTLR. As to conditions: cited from earlier work. This is another data set of the same source.
Series [8] deals with MTLR. The note with it: camicinal; ref [51]; cited from earlier work.
For series [9] the following is noted: cited from earlier work.

Chain of MTLR L341A (O43193 whole entry L341A): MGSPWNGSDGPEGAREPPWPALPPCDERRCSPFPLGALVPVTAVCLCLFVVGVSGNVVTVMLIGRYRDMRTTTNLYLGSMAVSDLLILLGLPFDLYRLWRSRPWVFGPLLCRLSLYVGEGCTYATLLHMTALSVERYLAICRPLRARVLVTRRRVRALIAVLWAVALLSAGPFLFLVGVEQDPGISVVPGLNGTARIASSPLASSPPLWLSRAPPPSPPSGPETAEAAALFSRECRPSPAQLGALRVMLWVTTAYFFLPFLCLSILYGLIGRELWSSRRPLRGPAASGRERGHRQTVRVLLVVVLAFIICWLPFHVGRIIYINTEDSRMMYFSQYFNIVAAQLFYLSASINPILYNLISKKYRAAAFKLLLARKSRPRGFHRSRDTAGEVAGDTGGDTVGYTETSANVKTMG

In the case of `CC[C@H]1OC(=O)[C@H](C)[C@@H](O[C@H]2C[C@@](C)(OC)[C@@H](O)[C@H](C)O2)[C@H](C)[C@@H](O[C@@H]2O[C@H](C)C[C@H](N(C)C)[C@H]2O)[C@](C)(O)C[C@@H](C)C(=O)[C@H](C)[C@@H](O)[C@]1(C)O` [erythromycin], the “role of ECL2 regions of MTLR for erythromycin” value in series [1] (ref [16], [35]) was “not critical for erythromycin”. Moreover, the “erythromycin activity (in words)” value in [2] is reported as “markedly decreased erythromycin activities”. Also, the ligand activity entry in series [3] is “marked decrease in ligand activity”. Also, the effectiveness in gastroparesis entry in [4] is given as “effective treatment for gastroparesis”. Also, the “weaker MTLR activation ability than motilin” value in [5] (erythromycin versus motilin, ref [4]) is ~ 1000 -fold. For the same molecule, in [5] (ref [11]), the MTLR agonism result is on record as “agonist for MTLR”. In series [6] (ref [9], [10]), the GI contractile activity entry is reported as “mimic exogenous motilin in GI contractile activity”. Moreover, the GI motility activity entry in series [6] (ref [9]) was “mimic the GI motility activity of motilin”.
Take `CC[C@H]1OC(=O)[C@H](C)[C@@H](O[C@H]2C[C@@](C)(OC)C[C@H](C)O2)[C@H](C)[C@@H](O[C@@H]2O[C@H](C)C[C@H](N(C)CC)[C@H]2O)[C@@]2(C)CC(C)=C(O2)[C@H](C)[C@@H](O)[C@H]1C` [ABT-229]: the desensitization-inducing effect result in [7] (compared with motilin and erythromycin, ref [52], [53]) is “more potent desensitization-inducing effect compared with motilin and erythromycin”. In series [7] (ref [52], [53]), the receptor internalization result is “relatively high ability to induce receptor internalization”.
For the molecule “motilin analog [1-12]: motilin analog [1-12] (FVPIFTYGELQR; Motilin; UniProt P12872 26-37, looked up, fragment)”, the “fold increased binding affinity” value in [1] (motilin analog [1-12] compared with analog [1-11], ref [4]) was 158 -fold.
As to `C[C@H]1CN(Cc2ccc(CC(=O)N3CCC(Nc4cccc(F)c4)CC3)cc2)CCN1` [Camicinal, camicinal], the receptor selectivity result in series [8] is “high receptor selectivity”. Also, in [5] (ref [51]), the “oral effectiveness as MTLR agonist” value is recorded as “orally effective MTLR agonist”. In [6] (ref [51]), the gastric cholinergic activity entry is listed as “long-lasting gastric cholinergic activity”.
Turning to atilmotin, the adverse effects result in series [9] (ref [50]) is listed as “not associated with any central nervous system–, respiratory system–, or cardiovascular system–related adverse effects”.
For the molecule `CC[C@H]1OC(=O)[C@H](C)[C@@H](O[C@H]2C[C@@](C)(OC)[C@@H](O)[C@H](C)O2)[C@H](C)[C@@H](O[C@@H]2O[C@H](C)C[C@H](N(C)C(C)C)[C@H]2O)[C@@]2(C)CC(C)=C(O2)[C@H](C)C(=O)[C@]1(C)OC` [mitemcinal], in series [7] (ref [54]), the desensitization effect result was “much more improved”.
Turning to `CC[C@H]1OC(=O)[C@H](C)[C@@H](O[C@H]2C[C@@](C)(OC)[C@@H](O)[C@H](C)O2)[C@H](C)[C@@H](O[C@@H]2O[C@H](C)C[C@H](N(C)C)[C@H]2O)[C@](C)(O)C[C@@H](C)CN(C)[C@H](C)[C@@H](O)[C@]1(C)O` [azithromycin], the GI disturbances entry in series [9] (long-term use, azithromycin, ref [4], [15]) was “often causes unexpected GI disturbances”. Also, the GI motility activity result in [6] (ref [9]) was “mimic the GI motility activity of motilin”.
